# Reference: patent publication US7893074B2, “2, 4-pyrimidinediamines useful in the treatment of neoplastic diseases, inflammatory and immune system disorders” (Novartis AG, priority 2003, dated 2011)
# Read-outs that look alike come from different tables or passages of the source.
# Key:
# [1] = target: Focal Adhesion Kinase (FAK) (Homo sapiens, UniProt Q05397); experiment: FAK assay system (Focal Adhesion Kinase inhibition); assay type: biochemical; conditions: read-out: FAK IC50
# [2] = tested on: Mouse mammary carcinoma 4T1 cells; experiment: Anchorage-independent tumor cell growth assay; assay type: cell-based
# Protocol: Cells are cultured for 2 h and inhibitors are added at various concentrations in a final concentration of 0.1% DMSO. After 48 h, cell growth is assayed with the cell counting kit-8 (Wako Pure Chemical), which uses a water soluble tetrazolium salt WST8. Twenty μL of the reagent is added into each well and cells are further cultured for 2 h. The optical density is measured at 450 nm.
# FAK = FAK (Mus musculus, UniProt P34152); experiment: Phos IC50 (phosphorylation); assay type: cell-based
# FAK, sequence (P34152 2-1052): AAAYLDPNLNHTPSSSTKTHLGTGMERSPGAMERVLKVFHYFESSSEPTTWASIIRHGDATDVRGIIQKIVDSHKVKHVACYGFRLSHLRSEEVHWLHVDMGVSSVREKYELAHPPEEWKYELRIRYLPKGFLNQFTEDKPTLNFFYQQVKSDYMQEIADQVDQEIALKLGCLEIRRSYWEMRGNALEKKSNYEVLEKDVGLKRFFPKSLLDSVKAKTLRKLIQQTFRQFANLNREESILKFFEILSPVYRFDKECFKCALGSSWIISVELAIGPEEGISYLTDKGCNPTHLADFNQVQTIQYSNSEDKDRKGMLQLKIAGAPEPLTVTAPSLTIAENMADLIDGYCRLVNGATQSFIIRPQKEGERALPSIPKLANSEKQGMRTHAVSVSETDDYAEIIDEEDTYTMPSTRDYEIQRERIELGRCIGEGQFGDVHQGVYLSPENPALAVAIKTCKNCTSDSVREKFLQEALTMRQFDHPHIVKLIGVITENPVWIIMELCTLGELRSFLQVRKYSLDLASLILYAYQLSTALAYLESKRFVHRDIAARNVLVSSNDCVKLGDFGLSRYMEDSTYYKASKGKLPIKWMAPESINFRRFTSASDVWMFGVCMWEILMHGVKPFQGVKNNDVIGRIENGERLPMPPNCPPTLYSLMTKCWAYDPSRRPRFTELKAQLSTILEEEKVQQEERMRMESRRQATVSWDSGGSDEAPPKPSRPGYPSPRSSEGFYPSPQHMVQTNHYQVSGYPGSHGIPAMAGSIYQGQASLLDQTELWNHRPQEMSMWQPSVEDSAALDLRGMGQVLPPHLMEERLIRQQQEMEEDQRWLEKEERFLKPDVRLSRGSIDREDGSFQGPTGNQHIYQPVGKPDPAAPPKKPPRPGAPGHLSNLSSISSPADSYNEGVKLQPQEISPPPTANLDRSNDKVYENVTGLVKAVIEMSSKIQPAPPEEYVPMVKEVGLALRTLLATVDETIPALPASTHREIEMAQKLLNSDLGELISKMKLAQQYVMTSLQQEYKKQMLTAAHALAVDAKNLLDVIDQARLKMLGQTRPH
# Focal Adhesion Kinase (FAK), sequence (Q05397 384-706): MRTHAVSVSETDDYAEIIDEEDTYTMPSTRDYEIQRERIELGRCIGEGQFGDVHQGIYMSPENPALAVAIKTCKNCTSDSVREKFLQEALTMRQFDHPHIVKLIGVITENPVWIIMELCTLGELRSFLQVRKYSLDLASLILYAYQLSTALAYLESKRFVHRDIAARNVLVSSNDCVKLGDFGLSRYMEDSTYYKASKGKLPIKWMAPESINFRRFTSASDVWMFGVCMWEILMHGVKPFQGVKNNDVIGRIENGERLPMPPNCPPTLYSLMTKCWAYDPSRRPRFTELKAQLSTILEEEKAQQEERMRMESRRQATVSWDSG
IC50 [1] [nM],"IC50 ([2]; Mus musculus, 4T1) [nM]",IC50 (FAK) [nM],IC50 [2] [nM],Structure (SMILES)
51,5100,360,,COc1cc(N2CCOCC2)ccc1Nc1ncc(Cl)c(Nc2ccccc2S(=O)(=O)Cc2ccccc2)n1 [Example 34-5]
1.3,230,100,,CNC1CCN(c2ccc(Nc3ncc(Cl)c(Nc4ccccc4S(=O)(=O)C(C)C)n3)c(OC)c2)C1 (stereo not drawn) [Example 28-21]
12,470,200,,COc1cc(N2CCN(C(C)=O)CC2)ccc1Nc1ncc(Cl)c(Nc2ccccc2S(=O)(=O)C2CC2)n1 [Example 30-2]
6.6,330,600,,CNC(=O)c1ccccc1Nc1nc(Nc2cc(N3CCOCC3)ccc2OC)ncc1Br [Example 8-1]
6.8,1430,> 10000,,CNC(=O)c1cc(N2CCN(C)CC2)ccc1Nc1nc(Nc2ccc(N3CCOCC3)cc2OC)ncc1Cl [Example 35-1]
6.2,60,210,,CNS(=O)(=O)c1ccccc1Nc1nc(Nc2ccc(OCC3CCN(C)CC3)cc2OC)ncc1Cl [Example 20-25]
2.4,990,500,,CNC(=O)c1ccccc1Nc1nc(Nc2ccc(N3CCOCC3)cc2OC)ncc1Br [Example 8-2]
3.3,1100,700,,CCC(CC)S(=O)(=O)c1ccccc1Nc1nc(Nc2ccc(N3CCC(N4CCCCC4)CC3)cc2OC)ncc1Cl [Example 29-2]
8.7,1000,800,,CNC(=O)c1ccccc1Nc1nc(Nc2ccc(N3CCC(O)CC3)cc2OC)ncc1Cl [Example 7-8]
5.9,280,500,,COc1cc(N2CCN(C)C(=O)C2)ccc1Nc1ncc(Cl)c(Nc2ccccc2S(=O)(=O)C(C)C)n1 [Example 28-23]
26,400,2000,,CNS(=O)(=O)c1ccccc1Nc1nc(Nc2cc(N3CCOCC3)ccc2OC)ncc1Cl [Example 20-11]
1,1080,300,,COc1cc(N2CCC(NC(C)=O)C2)ccc1Nc1ncc(Cl)c(Nc2ccccc2S(=O)(=O)NC2CCC2)n1 (stereo not drawn) [Example 24-3]
3.7,190,200,,CCCS(=O)(=O)c1ccccc1Nc1nc(Nc2ccc(N3CCC[C@H](C(N)=O)C3)cc2OC)ncc1Cl [Example 26-12]
9.1,2030,> 10000,,COc1cc(N2CCC(OC)CC2)ccc1Nc1ncc(Cl)c(Nc2ccccc2S(=O)(=O)C(C)C)n1 [Example 28-18]
19,1290,> 10000,,CNC(=O)c1cc(N2CCOCC2)ccc1Nc1nc(Nc2ccc(N3CCN(C(C)=O)CC3)cc2OC)ncc1Cl [Example 18-1]
19,2000,480,,CNS(=O)(=O)c1ccccc1Nc1nc(Nc2ccc(F)cc2OC)ncc1Cl [Example 20-24]
2.3,1100,700,,COc1cc(N2CCC[C@H]2CN2CCCC2)ccc1Nc1ncc(Cl)c(Nc2ccccc2S(=O)(=O)NC(C)C)n1 [Example 19-16]
6.6,570,200,,COc1cc(N2CCN3COCC[C@H]3C2)ccc1Nc1ncc(Cl)c(Nc2ccccc2S(=O)(=O)C(C)C)n1 [Example 28-26]
6.4,420,200,,CNC(=O)c1ccccc1Nc1nc(Nc2ccc(N3CCN4CCOC[C@@H]4C3)cc2OC)ncc1Cl [Example 7-16]
1.8,300,50,,CCC(C)NS(=O)(=O)c1ccccc1Nc1nc(Nc2ccc(OCCN3CCOCC3)cc2OC)ncc1Cl (stereo not drawn) [Example 21-4]
4.1,180,900,,CNC(=O)c1ccccc1Nc1nc(Nc2ccc(N3CCN(C(C)=O)CC3)cc2OC)ncc1Cl [Example 7-7]
3,1440,100,,COc1cc(N2CCN(C(C)C)CC2)ccc1Nc1ncc(Cl)c(Nc2ccccc2S(=O)(=O)C(C)C)n1 [Example 28-14]
2.1,,500,1520,CCCS(=O)(=O)c1ccccc1Nc1nc(Nc2ccc(N3CCC(O)C3)cc2OC)ncc1Cl (stereo not drawn) [Example 26-28]
7.5,1400,200,,COc1cc(N2CCOCC2)ccc1Nc1ncc(Cl)c(Nc2ccccc2S(=O)(=O)N2CCOCC2)n1 [Example 14-7]
20,,3000,1850,COCC1CCN(c2ccc(Nc3ncc(Cl)c(Nc4ccccc4S(=O)(=O)C(C)C)n3)c(OC)c2)CC1 [Example 28-10]
8.2,300,40,,CCS(=O)(=O)c1ccccc1Nc1nc(Nc2ccc(N3CCN(C(C)=O)CC3)cc2OC)ncc1Cl [Example 27-5]
9,900,> 10000,,CNS(=O)(=O)c1ccccc1Nc1nc(Nc2ccc(N3CCC(C#N)CC3)cc2OC)ncc1Br [Example 3-40]
11,7000,3000,,COc1cc(F)ccc1Nc1ncc(Cl)c(Nc2ccccc2S(=O)(=O)N2CCOCC2)n1 [Example 16B]
33,2250,190,,CCCCCS(=O)(=O)c1ccccc1Nc1nc(Nc2ccc(N3CCOCC3)cc2OC)ncc1Cl [Example 34-3]

# Further lines, the molecule ahead of its results:
Structure (SMILES),IC50 [1] [nM],"IC50 ([2]; Mus musculus, 4T1) [nM]",IC50 (FAK) [nM],IC50 [2] [nM]
CNC(=O)c1cc(F)ccc1Nc1nc(Nc2ccc(N3CCN(C(C)=O)CC3)cc2OC)ncc1Cl [Example 11-4],4.3,3200,> 10000,
CCCOc1ccc(OC)cc1Nc1ncc(Br)c(Nc2ccccc2S(=O)(=O)NC)n1 [Example 3-63],27,> 10000,> 10000,
COc1cc(OCC2CCCCN2C)ccc1Nc1ncc(Cl)c(Nc2ccccc2S(=O)(=O)NC(C)C)n1 (stereo not drawn) [Example 19-17],1,170,> 10000,
CNC(=O)c1ccccc1Nc1nc(Nc2cccc3[nH]ccc23)ncc1Cl [Example 7-27],21,220,500,
CNS(=O)(=O)c1ccccc1Nc1nc(Nc2cc(-c3cccc(OC)c3)ccc2C)ncc1Br [Example 3-28],43,700,710,
CCOc1ccc(-c2ccc(OC)cc2)cc1Nc1ncc(Br)c(Nc2ccccc2S(=O)(=O)NC)n1 [Example 3-30],69,3000,600,
CNc1ccccc1Nc1ncc(Br)c(Nc2ccccc2S(=O)(=O)NC)n1 [Example 3-8],74,6000,300,
CNS(=O)(=O)c1ccccc1Nc1nc(Nc2cccc3c2CCCC3)ncc1Br [Example 3-31],13,5000,1100,
COc1cc(NC(C)(C)CO)ccc1Nc1ncc(Cl)c(Nc2ccccc2S(=O)(=O)NC(C)C)n1 [Example 19-23],6.4,710,700,
CNS(=O)(=O)c1ccccc1Nc1nc(Nc2cc(N3CCCCC3)ccc2C)ncc1Br [Example 3-26],50,2000,790,
COc1cc(OCCN2CCN(C)CC2)ccc1Nc1ncc(Cl)c(Nc2ccccc2S(=O)(=O)NC(C)C)n1 [Example 19-30],< 1,100,60,
CNS(=O)(=O)c1ccccc1Nc1nc(Nc2cccc3c2ccn3CCCN2CCOCC2)ncc1Br [Example 3-45],0.9,20,20,
CNS(=O)(=O)c1ccccc1Nc1nc(Nc2cc(C(=O)N3CCOCC3)ccc2C)ncc1Br [Example 3-22],120,2000,900,
CNC(=O)c1ccccc1Nc1nc(Nc2ccc(OCCN3CCN(C)CC3)cc2OC)ncc1Cl [Example 7-21],3.3,460,> 10000,
"CNS(=O)(=O)c1ccccc1Nc1nc(Nc2cc(OC)ccc2OC)ncc1[N+](=O)[O-] [Example 1, 2-[2-(2,5-Dimethoxy-phenylamino)-5-nitro-pyrimidin-4-ylamino]-N-methyl-benzenesulfonamide]",140,> 10000,700,
CNS(=O)(=O)c1ccccc1Nc1nc(Nc2cc(F)ccc2OC)ncc1Cl [Example 20-23],30,3000,490,
CNS(=O)(=O)c1ccccc1Nc1nc(Nc2cc(C(C)C)ccc2C)ncc1Br [Example 3-18],130,9000,1500,
CCN(CC)C(=O)C1CCCN(c2ccc(Nc3ncc(Cl)c(Nc4ccccc4S(=O)(=O)NC(C)C)n3)c(OC)c2)C1 (stereo not drawn) [Example 19-18],7,870,130,
CNS(=O)(=O)c1ccccc1Nc1nc(Nc2cc(C)cc(C)c2C)ncc1Br [Example 3-16],48,3000,1100,
CNC(=O)c1ccccc1Nc1nc(Nc2ccc(N3CCOCC3)c3c2ccn3C)ncc1Cl [Example 7-29],57,480,2000,
CNC(=O)c1cc(F)ccc1Nc1nc(Nc2ccc(N3CCC(N4CCCCC4)CC3)cc2OC)ncc1Cl [Example 11-2],4.1,690,800,
COc1cc(F)ccc1Nc1ncc(Cl)c(Nc2ccccc2S(=O)(=O)NCC(C)C)n1 [Example 22-2],26,3000,1000,
CCOCCOC1CCN(c2ccc(Nc3ncc(Cl)c(Nc4ccccc4C(=O)NC)n3)c(OC)c2)CC1 [Example 7-9],8.2,850,1000,
